Measurements from patent US20250020635A1, “ASSAY METHODS AND USES THEREOF FOR SCREENING ALZHEIMER'S DISEASE TREATMENT COMPOUNDS” (priority 2023, published 2025).
Like-named read-outs stand apart in the source and are kept apart here.

Molecular target: T1, PLCγ2-HiBit (Homo sapiens, UniProt P16885)
T1 construct: expressed in transfected cells; host or cells: HMC3 cells
T1 sequence (P16885 1-1265): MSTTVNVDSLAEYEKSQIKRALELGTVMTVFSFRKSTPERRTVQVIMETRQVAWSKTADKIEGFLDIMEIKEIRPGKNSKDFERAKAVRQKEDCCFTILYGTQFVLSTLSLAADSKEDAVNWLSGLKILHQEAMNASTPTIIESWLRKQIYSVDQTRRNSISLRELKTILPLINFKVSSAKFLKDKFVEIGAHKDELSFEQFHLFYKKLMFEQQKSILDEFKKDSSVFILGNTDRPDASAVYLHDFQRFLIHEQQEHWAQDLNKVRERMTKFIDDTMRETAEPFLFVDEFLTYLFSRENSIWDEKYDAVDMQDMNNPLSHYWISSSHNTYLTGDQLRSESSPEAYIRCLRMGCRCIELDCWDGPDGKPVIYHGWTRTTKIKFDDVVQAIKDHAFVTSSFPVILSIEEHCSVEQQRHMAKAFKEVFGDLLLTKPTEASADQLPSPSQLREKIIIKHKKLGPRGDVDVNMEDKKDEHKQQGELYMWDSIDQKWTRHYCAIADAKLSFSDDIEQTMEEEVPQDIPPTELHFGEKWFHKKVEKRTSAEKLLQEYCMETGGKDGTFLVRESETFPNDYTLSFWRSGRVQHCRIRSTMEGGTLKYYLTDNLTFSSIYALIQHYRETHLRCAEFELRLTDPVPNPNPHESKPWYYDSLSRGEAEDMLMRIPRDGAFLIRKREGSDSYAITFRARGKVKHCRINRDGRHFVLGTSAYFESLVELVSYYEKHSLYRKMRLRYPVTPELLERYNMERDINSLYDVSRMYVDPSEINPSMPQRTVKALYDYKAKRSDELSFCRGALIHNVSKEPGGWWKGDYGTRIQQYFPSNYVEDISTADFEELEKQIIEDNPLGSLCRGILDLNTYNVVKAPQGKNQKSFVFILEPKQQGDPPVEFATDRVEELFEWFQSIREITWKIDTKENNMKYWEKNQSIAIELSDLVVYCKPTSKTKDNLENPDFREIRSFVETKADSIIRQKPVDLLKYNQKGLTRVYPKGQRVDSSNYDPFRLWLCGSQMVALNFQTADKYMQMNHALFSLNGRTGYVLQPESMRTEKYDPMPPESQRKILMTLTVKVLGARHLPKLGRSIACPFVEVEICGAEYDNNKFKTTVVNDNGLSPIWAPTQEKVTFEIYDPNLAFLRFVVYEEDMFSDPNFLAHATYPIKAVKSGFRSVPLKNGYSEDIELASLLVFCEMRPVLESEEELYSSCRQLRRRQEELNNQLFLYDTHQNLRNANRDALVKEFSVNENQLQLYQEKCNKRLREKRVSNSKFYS
Experiment: Cellular thermal shift assay (SplitLuc CETSA), PLCγ2-HiBit in HMC3 cells
Type: cell-based
Conditions: for PLCγ2-HiBit %, percent luminescence at highest dose compared to control (DMSO): 100 μM
Text: These compounds have been evaluated using a wide variety of assay classes namely target engagement utilizing cellular thermal shift assay (CETSA),^34 affinity selection mass spectrometry (ASMS),^35 biochemical activity employing the fluorogenic probe XY-69,^36 and cellular activity testing for phagocytosis. Cellular Thermal Shift Assays (CETSA) assess cellular target engagement by quantifying changes in protein thermal stability upon ligand binding to endogenous proteins in intact cells.^34 For SAR studies, a split Nano Luciferase (SplitLuc CETSA) version of the assay was utilized to provide sufficient throughput.^37,38 HMC3 cells were stably transfected with PLCγ2-HiBit to enable protein expression in a physiologically relevant cellular context. The thermal stability of this HiBit-labeled protein in intact cells was measured in the following two formats. In the initial screen, using 96-well plates, cells were treated with FBS analogs at a single concentration (100 μM) at 37° C. for 60 min and then exposed to a 3-minute isothermal heating step at 45.9° C. (experimentally determined Tm of PLCγ2-HiBit). Luminescence detection was then conducted with the Nano-Glo HiBit Lytic detection kit (Promega, Cat. N3040).^38 Compound treatment was performed in triplicate, and raw signals were normalized to the mean of the controls (in the same plate) as % of control. When the difference in compound-treated cells >control mean+3SD, the compound was considered positive and selected for further testing with dose-response CETSA. In the dose response CETSA, cells were treated with decreasing concentrations from 100 μM with 1:3 serial dilutions to generate an 8-point curve. An AC50 was calculated with the % of control data using a four-parameter logistic curve regression model, and the percent luminescence remaining at the highest concentration is also reported for the compounds when the difference from the DMSO control is greater than 3× the standard deviation (SD). Otherwise, an AC50 was not calculated.

SMILES	PLCγ2-HiBit %, percent luminescence at highest dose compared to control (DMSO)	PLCy2-HiBit % @100 (Table 1)	AC50 (Table 1, CETSA dose response, read-out: AC50)	AC50 (Table 5, 8-point dose response from 100 μM, HMC3 cells, 45.9° C., read-out: AC50, concentration that induced a half-maximum loss of luminesce compared to control)
Cc1cc(C)c(S(=O)(=O)Nc2ccccc2C(F)(F)F)c(C)c1 [Compound 2, o-3M3FBS, reference compound]	102%	102%		
Cc1cc(C)c(S(=O)(=O)Nc2cccc(C(F)(F)F)c2)c(C)c1 [Compound 1, 2,4,6-trimethyl-N-(meta-3-trifluoromethyl-phenyl)-benzenesulfonamide, reference compound]	105%	105%		
O=S(=O)(Nc1ccc(Br)cc1F)c1cccs1 [Compound 8]	66%	66%	> 100 µM	> 100 µM
Cc1cc(C)c(S(=O)(=O)NC2CCCNC2)c(C)c1 (stereo not drawn) [Compound 11]	64%			
